In paper PMC4457358, “Structure–activity studies in the development of a hydrazone based inhibitor of adipose-triglyceride lipase (ATGL)” (Bioorganic & Medicinal Chemistry, 2015):
Entries after “also recorded” stand apart in the source; their conditions may differ. Like-named read-outs stand apart in the source and are kept apart here.

Experiments:
[1] = system: WAT (white adipose tissue) organ cultures; experiment: Lipolysis of isolated WAT organ cultures of wild-type, ATGL-ko and HSL-ko mice (FA release); type: cell-based; conditions: for FA release (lipolysis): 0, 10, 100, 200 µM inhibitor, fat pads of wt, ATGL-ko, HSL-ko mice; for selectivity between ATGL and HSL: lipolysis similarly decreased in ATGL and HSL deficient adipose tissue
Source text: As the hydrazone moiety is regarded as a problematic molecular group due to its metabolic instability resulting in toxic side products,[12] we prepared compound 8 which can be regarded as a variant of 1a missing one nitrogen atom (Scheme 5). […] Taken together these efforts have shown that the hydrazone moiety is an essential element of the biological activity of the hit compound 1a and could not be replaced by the most obvious structural isosteres. In order to further characterize our hit compound 1a and best inhibitor 1h, these compounds were tested for ATGL- and HSL-selectivity by the determination of lipolysis in WAT (white adipose tissue) organ cultures of wild-type, ATGL-ko, and HSL-ko mice. […]
µM Inhibitor µM Inhibitor […]
(§1) (also on this page, place not known: µmol glycerol/h*mg protein nmol FFA/ml/min nmol FFA/h*mg nmol FFA/h*mg) […]
(§2) Lipolysis of isolated WAT organ cultures - Gonadal fat pads of wild-type, ATGL deficient (ATGL-ko), and HSL deficient (HSL-ko) mice were surgically removed and washed several times with PBS.
(§3) Tissue pieces (~15 mg) were preincubated in DMEM containing 0, 10, 100, and 200 µM inhibitors for 8 h at C37°C, 5% CO2, 95 % humidified atmosphere. Thereafter, the medium was replaced by DMEM containing 2 % BSA (fatty acid-free) and 0, 10, 100, and 200 µM inhibitors, and incubated for another 60 min at 37°C. Then, aliquots of the medium were removed and analyzed for FA and glycerol content using commercial kits (HR Series NEFA-HR(2), WAKO Diagnostics, Neuss, Germany; Sigma, St.
Louis, MO). For protein determinations, fat pads were washed extensively with PBS and lysed in 0.3 […]
U. et al. Monoglyceride lipase deficiency in mice impairs lipolysis and attenuates diet-induced insulin

[2] = molecular target: T1, murine ATGL (Mus musculus, UniProt Q8BJ56); experiment: Triglyceride hydrolase activity assay with COS7-cell lysate overexpressing recombinant murine ATGL, radiolabelled triolein substrate; type: biochemical; conditions: for inhibition at 200 µM: 1 h, read-out: I200 (%); for IC50 / biological activity against ATGL (in words): COS7-cell lysate overexpressing murine ATGL;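 on all read-outs here: radioactivity from the triolein substrate quantified by liquid scintillation counting after phase separation, reflecting triglyceride hydrolase activity of murine ATGL in lysates of transfected COS-7 cells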
T1 construct: expressed in transfected cells; host or cells: COS-7 (ATCC CRL-1651), transient transfection with Metafectene; crude lysate after 1000 x g spin
T1 sequence (Q8BJ56 1-486): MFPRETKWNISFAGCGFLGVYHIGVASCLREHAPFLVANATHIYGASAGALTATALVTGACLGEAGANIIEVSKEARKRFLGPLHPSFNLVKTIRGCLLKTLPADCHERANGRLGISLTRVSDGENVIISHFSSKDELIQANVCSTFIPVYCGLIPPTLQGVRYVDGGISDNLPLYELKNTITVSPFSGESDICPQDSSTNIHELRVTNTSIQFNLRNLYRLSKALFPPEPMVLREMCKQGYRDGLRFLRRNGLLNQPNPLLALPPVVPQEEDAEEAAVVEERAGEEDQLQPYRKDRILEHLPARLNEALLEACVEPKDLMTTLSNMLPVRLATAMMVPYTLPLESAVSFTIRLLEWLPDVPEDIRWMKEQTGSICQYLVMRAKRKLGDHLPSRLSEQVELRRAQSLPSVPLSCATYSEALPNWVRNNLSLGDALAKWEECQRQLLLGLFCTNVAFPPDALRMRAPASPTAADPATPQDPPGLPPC
Description: All synthesized test compounds were screened for their efficiency to inhibit ATGL activity in vitro in an assay using radiolabelled triolein as substrate.[20] As ATGL cannot be purified, the assays were performed with COS7-cell lysates from cells overexpressing recombinant murine ATGL. For the determination of the IC50-value inhibitors were administered with increasing concentrations to the enzyme and its substrate. To determine the ATGL-inhibition efficiency at 200 μM (I200), 200 μM inhibitor was administered to the enzyme and its substrate.
For the determination of TG hydrolase activity cell lysates of COS-7 cells overexpressing recombinant murine ATGL were used. Therefore, monkey embryonic kidney cells (Cos-7; ATCC CRL-1651) were cultivated in Dulbeccos modified eagles medium (DMEM, GIBCO, Invitrogen Corp., Carlsbad, CA), containing 10% fetal calf serum (FCS, Sigma–Aldrich) and antibiotics (100 IU/mL penicillin and 100 μg/mL streptomycin) at standard conditions (37 °C, 5% CO2, 95% humidified atmosphere). Cells were transfected with 1 μg DNA complexed to Metafectene (Biontex GmbH, Munich, Germany) in serum free DMEM. After 4 h the medium was replaced by DMEM supplemented with 10% FCS. For the preparation of cell lysates, cells were washed with 1× phosphate buffered saline, collected using a cell scraper, and disrupted in buffer A (0.25 M sucrose, 1 mM EDTA, 1 mM dithiothreitol, 20 μg/mL leupeptine, 2 μg/mL antipain, 1 μg/mL pepstatin, pH 7.0) by sonication (Virsonic 475, Virtis, Gardiner, NJ). Nuclei and unbroken cells were removed by centrifugation (1000×g, 4 °C, for 10 min). Protein concentration of the cell lysates were determined by Bio-Rad protein assay according to the manufacturer’s protocol (Bio-Rad 785, Bio-Rad Laboratories, Munich, Germany), using BSA as standard.
The triolein (TO) substrate was prepared as described. […] In brief, 330 μM triolein (40,000 cpm/nmol) (GE Healthcare) was emulsified with 45 μM phosphatidylcholine/phosphatidylinositol (3:1) (Sigma) in 100 mM potassium phosphate buffer (pH 7.0) by sonication (Virsonic 475, Virtis) and was adjusted to 5% (w/v) fatty acid free bovine serum albumin (BSA, Sigma). 100 μL (20 μg protein) cell lysate or 2 μl purified recombinant LPL (Sigma–Aldrich) were incubated with 100 μL TO substrate in the presence or in the absence of inhibitors in a water bath for 1 h at 37 °C. After incubation, the reaction was terminated by adding 3.25 mL of methanol/chloroform/heptane (10:9:7) and 1 mL of 0.1 M potassium carbonate, 0.1 M boric acid (pH 10.5). After centrifugation (800 g, 15 min), the radioactivity in 1 mL of the upper phase was determined by liquid scintillation counting.

[3] = system: lipoprotein lipase; experiment: LPL activity with purified recombinant LPL and triolein substrate; type: biochemical; conditions: 100 µM compound
Description: The triolein (TO) substrate was prepared as described. In brief, 330 μM triolein (40,000 cpm/nmol) (GE Healthcare) was emulsified with 45 μM phosphatidylcholine/phosphatidylinositol (3:1) (Sigma) in 100 mM potassium phosphate buffer (pH 7.0) by sonication (Virsonic 475, Virtis) and was adjusted to 5% (w/v) fatty acid free bovine serum albumin (BSA, Sigma). 100 μL (20 μg protein) cell lysate or 2 μl purified recombinant LPL (Sigma–Aldrich) were incubated with 100 μL TO substrate in the presence or in the absence of inhibitors in a water bath for 1 h at 37 °C. After incubation, the reaction was terminated by adding 3.25 mL of methanol/chloroform/heptane (10:9:7) and 1 mL of 0.1 M potassium carbonate, 0.1 M boric acid (pH 10.5). After centrifugation (800 g, 15 min), the radioactivity in 1 mL of the upper phase was determined by liquid scintillation counting.
(§4) Structure-activity studies in the development of a hydrazone based inhibitor of adipose-triglyceride lipase (ATGL)
(§5) Nicole Mayer, Martina Schweiger, Michaela-Christina Melcher, Christian Fledelius, Rudolf Zechner, Robert Zimmermann and Rolf Breinbauer […]
(§6) µM Inhibitor µM Inhibitor
(§7) Fig. S1: Selectivity tests of 1a and 1h with white adipose tissue fat pads of wt, ATGL-ko, and […]
Fig S2. LPL (left) and Monoglyceride hydrolase (MGH) (right) activities in the absence or presence of 100 µM compound 1h. […]

[4] = molecular target: T2, monoglyceride lipase (MGL) (Mus musculus, UniProt O35678); experiment: MG hydrolase activity with recombinant purified mMGL; type: biochemical; conditions: 100 µM compound
T2 sequence (O35678 1-303): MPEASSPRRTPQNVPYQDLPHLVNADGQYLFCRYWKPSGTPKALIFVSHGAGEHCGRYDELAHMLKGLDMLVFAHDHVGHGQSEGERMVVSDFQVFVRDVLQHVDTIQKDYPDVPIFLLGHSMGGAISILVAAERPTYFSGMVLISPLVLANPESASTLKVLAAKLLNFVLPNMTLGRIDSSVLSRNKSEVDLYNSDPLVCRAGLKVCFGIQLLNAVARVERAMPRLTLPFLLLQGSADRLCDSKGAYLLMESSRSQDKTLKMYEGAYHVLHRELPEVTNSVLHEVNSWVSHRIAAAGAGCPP
Description: as §4, §5, §6, §7
Fig S2. LPL (left) and Monoglyceride hydrolase (MGH) (right) activities in the absence or presence of 100 µM compound 1h.
as §1, §2
Tissue pieces (~15 mg) were preincubated in DMEM containing 0, 10, 100, and 200 µM inhibitors for 8 h at C37°C, 5% CO2, 95 % humidified atmosphere. […] Then, aliquots of the medium were removed and analyzed for FA and glycerol content using commercial kits (HR Series NEFA-HR(2), WAKO Diagnostics, Neuss, Germany; Sigma, St. […]
viability assays, cells were seeded at an initial density of […] cells per well in 12-well plates and cultured under standard conditions for 24 hours. […] After solubilization for 10 min at room temperature absorbance was measured at 540 nm. […]

[5] = system: AML-12 mouse hepatocytes cells; experiment: Tox 4 toxicity test (neutral red viability); type: cell-based; conditions: 1, 10, 100, 200 µM inhibitor
Description: Fig. S3: Toxicity test of inhibitor 1h using Tox 4-test with AML-12 mouse hepatocytes cells […]
as §2, §3
Louis, MO). […]
viability assays, cells were seeded at an initial density of […] cells per well in 12-well plates and cultured under standard conditions for 24 hours. […] After solubilization for 10 min at room temperature absorbance was measured at 540 nm.
Determination of MG hydrolase activity. Monoacylglycerol hydrolase activities were determined using recombinant, purified mMGL and rac-1-(3)-oleoylglycerol as substrate as described (Taschler, U. et al. Monoglyceride lipase deficiency in mice impairs lipolysis and attenuates diet-induced insulin

[6] = ATGL-inhibition efficiency at 200 μM inhibitor

SMILES | melting point | inhibition at 200 µM [2, 6] | IC50 [2] | other results
Oc1ccc(/C=N/N2CCN(c3ccccc3)CC2)cc1O [Compound 1a, (E)-4-((4-Phenylpiperazin-1-ylimino)methyl)benzene-1,2-diol] | 180 °C | 69% | 110 µM | FA release (lipolysis) [1]: dose dependent reduction of FA release; selectivity between ATGL and HSL [1]: no selectivity
Oc1ccc(/C=N/N2CCN(c3ccccc3)CC2)c(O)c1 [Compound 1h, (E)-4-(4-Phenylpiperazin-1-ylimino)methylbenzene-1,3-diol] | 183 to 184 °C | 94% | 10 µM | FA release (lipolysis) [1]: dose dependent reduction of FA release; selectivity between ATGL and HSL [1]: no selectivity; also recorded: limited specificity; inhibition of lipoprotein lipase [3]: does not inhibit; inhibition of monoglyceride lipase (MGL) [4]: does not inhibit; toxicity (Tox 4 toxicity test) [5]: toxic; also recorded: intrinsic toxicity
Oc1ccc(/C=N/N2CCN(Cc3ccccc3)CC2)c(O)c1 [Compound 3d, (E)-4-((4-Benzylpiperazin-1-ylimino)methyl)benzene-1,3-diol] | 225 to 228 °C | 48% |  | 
Oc1ccc(/C=N/N2CCN(CCc3ccccc3)CC2)c(O)c1 [Compound 3e, (E)-4-((4-Phenethylpiperazin-1-ylimino)methyl)benzene-1,3-diol] | 211 to 214 °C | 14% |  | 
Oc1ccc(/C=N/N2CCN(C3CCCCC3)CC2)c(O)c1 [Compound 3f, (E)-4-((4-Cyclohexylpiperazin-1-ylimino)methyl)benzene-1,3-diol] | 247 to 249 °C (dec.) | 25% |  | 
Oc1ccc(/C=N/N2CCN(C3CCCC3)CC2)c(O)c1 [Compound 3g, (E)-4-((4-Cyclopentylpiperazin-1-ylimino)methyl)benzene-1,3-diol] | 237 to 239 °C (dec.) | 36% |  | 
Oc1ccc(/C=N/N2CCC(c3ccccc3)CC2)c(O)c1 [Compound 3h, (E)-4-((4-Phenylpiperidine-1-ylimino)methyl)benzene-1,3-diol] | 139 to 142 °C | 81% | 40 µM | 
Oc1ccc(/C=N/N2CCC(Cc3ccccc3)CC2)c(O)c1 [Compound 3i, (E)-4-((4-benzylpiperidine-1-ylimino)methyl)benzene-1,3-diol] | 138 to 141 °C | 26% |  | 
Oc1ccc(CN2CCN(c3ccccc3)CC2)cc1O [Compound 8, 4-((4-Phenylpiperazin-1-yl)methyl)benzene-1,2-diol] | 100 to 102 °C |  |  | inhibition at 200 µM [2]: 20%; biological activity against ATGL (in words) [2]: biologically inactive
COc1ccc(NC(=O)N2CCN(c3ccccc3)CC2)cc1OC [Compound 12, N-(3,4-Dimethoxyphenyl)-4-phenylpiperazin-1-carboxamide] | 122 to 125 °C | 40% |  | biological activity against ATGL (in words) [2]: no biological activity
O=C(Oc1ccc(F)c(F)c1)N1CCN(c2ccccc2)CC1 [Compound 14, 3,4-Difluorophenyl-4-phenylpiperazin-1-carboxylate] | 94 to 96 °C | 57% | 110 µM | 
